Test results: ChEMBL document CHEMBL1909602, “Design and synthesis of novel triazole antifungal derivatives by structure-based bioisosterism” (Eur J Med Chem, 2011)
Converted amounts (≈) assume the structure as drawn.

Columns and labels:
[1] = test system: Candida tropicalis; test: Antifungal activity against Candida tropicalis 087 after 24 hrs by serial dilution method; type: functional; settings: Candida tropicalis, 087, 24 h
[2] = test system: Candida parapsilosis; test: Antifungal activity against Candida parapsilosis ATCC 22019 after 24 hrs by serial dilution method; type: functional; settings: Lodderomyces parapsilosis, ATCC 22019, 24 h
[3] = test system: Cryptococcus neoformans; test: Antifungal activity against Cryptococcus neoformans 32609 after 72 hrs by serial dilution method; type: functional; settings: Cryptococcus neoformans, 32609, 72 h
[4] = Hydrophobicity, Log P of the compound; type: physicochemical; settings: octanol/water
[5] = test system: Aspergillus fumigatus; test: Antifungal activity against Aspergillus fumigatus 7544 after 7 days by serial dilution method; type: functional; settings: Aspergillus fumigatus, 7544, 168 h
[6] = test system: Pichia kudriavzevii; test: Antifungal activity against Candida krusei ATCC 6258 after 24 hrs by serial dilution method; type: functional; settings: ATCC 6258, 24 h
[7] = test system: Candida albicans; test: Antifungal activity against Candida albicans Y0109 after 24 hrs by serial dilution method; type: functional; settings: Y0109, 24 h

Row | Compound | MIC80 [1] [µg/mL] | MIC80 [2] [µg/mL] | MIC80 [3] [µg/mL] | logP [4] | MIC80 [5] [µg/mL] | MIC80 [6] [µg/mL] | MIC80 [7] [µg/mL]
1 | O=c1n(-c2ccccc2F)cnn1CCCN1CCN(CC(O)(Cn2cncn2)c2ccc(F)cc2F)CC1 (racemic) | 1 (≈ 1.84 µM) | 1 (≈ 1.84 µM) | > 64 | 2.02 | > 64 | > 64 | 0.25 (≈ 0.461 µM)
2 | Cc1ccc(-n2cnn(CCCN3CCN(CC(O)(Cn4cncn4)c4ccc(F)cc4F)CC3)c2=O)c(C)c1 (racemic) | 1 (≈ 1.81 µM) | 1 (≈ 1.81 µM) | 8 (≈ 14.5 µM) | 2.65 | > 64 | 1 (≈ 1.81 µM) | 1 (≈ 1.81 µM)
3 | O=c1n(-c2ccc(F)c(Cl)c2)cnn1CCCN1CCN(CC(O)(Cn2cncn2)c2ccc(F)cc2F)CC1 (racemic) | 0.0625 (≈ 0.108 µM) | 0.25 (≈ 0.433 µM) | 1 (≈ 1.73 µM) | 2.65 | 4 (≈ 6.93 µM) | 0.25 (≈ 0.433 µM) | 0.0625 (≈ 0.108 µM)
4 | Cc1cc(C)cc(-n2cnn(CCCN3CCN(CC(O)(Cn4cncn4)c4ccc(F)cc4F)CC3)c2=O)c1 (racemic) | 0.25 (≈ 0.452 µM) | 1 (≈ 1.81 µM) | 4 (≈ 7.24 µM) | 2.65 | 8 (≈ 14.5 µM) | 1 (≈ 1.81 µM) | 0.25 (≈ 0.452 µM)
5 | Cc1ccc(-n2cnn(CCCN3CCN(CC(O)(Cn4cncn4)c4ccc(F)cc4F)CC3)c2=O)cc1C (racemic) | 0.25 (≈ 0.452 µM) | 0.25 (≈ 0.452 µM) | 4 (≈ 7.24 µM) | 2.65 | 8 (≈ 14.5 µM) | 1 (≈ 1.81 µM) | 0.25 (≈ 0.452 µM)
6 | Cc1ccc(-n2cnn(CCCN3CCN(CC(O)(Cn4cncn4)c4ccc(F)cc4F)CC3)c2=O)cc1Cl (racemic) | 0.25 (≈ 0.436 µM) | 0.25 (≈ 0.436 µM) | 1 (≈ 1.75 µM) | 2.91 | 4 (≈ 6.98 µM) | 0.25 (≈ 0.436 µM) | 0.0625 (≈ 0.109 µM)
7 | Cc1ccc(-n2cnn(CCCN3CCN(CC(O)(Cn4cncn4)c4ccc(F)cc4F)CC3)c2=O)cc1 (racemic) | 0.25 (≈ 0.464 µM) | 1 (≈ 1.86 µM) | 8 (≈ 14.9 µM) | 2.28 | > 64 | 1 (≈ 1.86 µM) | 0.25 (≈ 0.464 µM)
8 | O=c1n(-c2ccccc2)cnn1CCCN1CCN(CC(O)(Cn2cncn2)c2ccc(F)cc2F)CC1 (racemic) | 1 (≈ 1.91 µM) | 1 (≈ 1.91 µM) | 8 (≈ 15.3 µM) | 1.92 | > 64 | 1 (≈ 1.91 µM) | 0.25 (≈ 0.477 µM)
9 | Cc1cccc(C)c1-n1cnn(CCCN2CCN(CC(O)(Cn3cncn3)c3ccc(F)cc3F)CC2)c1=O (racemic) | 0.25 (≈ 0.452 µM) | 4 (≈ 7.24 µM) | > 64 | 2.65 | > 64 | 1 (≈ 1.81 µM) | 1 (≈ 1.81 µM)
10 | O=c1n(-c2cccc(Cl)c2)cnn1CCCN1CCN(CC(O)(Cn2cncn2)c2ccc(F)cc2F)CC1 (racemic) | 0.0625 (≈ 0.112 µM) | 0.25 (≈ 0.447 µM) | 4 (≈ 7.16 µM) | 2.54 | 16 (≈ 28.6 µM) | > 64 | 0.0625 (≈ 0.112 µM)
11 | Cc1ccc(-n2cnn(CCCN3CCN(CC(O)(Cn4cncn4)c4ccc(F)cc4F)CC3)c2=O)cc1[N+](=O)[O-] (racemic) | 0.25 (≈ 0.428 µM) | 1 (≈ 1.71 µM) | 16 (≈ 27.4 µM) | 2.11 | > 64 | > 64 | 0.25 (≈ 0.428 µM)
12 | O=c1n(-c2ccc(Cl)cc2)cnn1CCCN1CCN(CC(O)(Cn2cncn2)c2ccc(F)cc2F)CC1 (racemic) | 0.25 (≈ 0.447 µM) | 0.25 (≈ 0.447 µM) | 4 (≈ 7.16 µM) | 2.54 | 8 (≈ 14.3 µM) | 0.25 (≈ 0.447 µM) | 0.0625 (≈ 0.112 µM)
13 | Cc1cccc(-n2cnn(CCCN3CCN(CC(O)(Cn4cncn4)c4ccc(F)cc4F)CC3)c2=O)c1 (racemic) | 0.25 (≈ 0.464 µM) | 1 (≈ 1.86 µM) | 8 (≈ 14.9 µM) | 2.28 | 8 (≈ 14.9 µM) | 1 (≈ 1.86 µM) | 0.25 (≈ 0.464 µM)
14 | OC(Cn1cncn1)(Cn1cncn1)c1ccc(F)cc1F [FLUCONAZOLE] | 0.0625 (≈ 0.204 µM) | 1 (≈ 3.27 µM) | 16 (≈ 52.2 µM) |  | > 64 | 0.25 (≈ 0.816 µM) | 0.25 (≈ 0.816 µM)
15 | O=c1n(-c2ccc(F)cc2)cnn1CCCN1CCN(CC(O)(Cn2cncn2)c2ccc(F)cc2F)CC1 (racemic) | 0.25 (≈ 0.461 µM) | 1 (≈ 1.84 µM) | > 64 | 2.02 | > 64 | > 64 | 0.25 (≈ 0.461 µM)
16 | O=c1n(-c2ccc(Cl)c(Cl)c2)cnn1CCCN1CCN(CC(O)(Cn2cncn2)c2ccc(F)cc2F)CC1 (racemic) | 0.0625 (≈ 0.105 µM) | 0.25 (≈ 0.421 µM) | 1 (≈ 1.69 µM) | 3.17 | 4 (≈ 6.74 µM) | 0.25 (≈ 0.421 µM) | 0.0625 (≈ 0.105 µM)
17 | Cc1ccc(C)c(-n2cnn(CCCN3CCN(CC(O)(Cn4cncn4)c4ccc(F)cc4F)CC3)c2=O)c1 (racemic) | 0.25 (≈ 0.452 µM) | 1 (≈ 1.81 µM) | 8 (≈ 14.5 µM) | 2.65 | > 64 | 1 (≈ 1.81 µM) | 0.25 (≈ 0.452 µM)
18 | CCOc1ccc(-n2cnn(CCCN3CCN(CC(O)(Cn4cncn4)c4ccc(F)cc4F)CC3)c2=O)cc1 (racemic) | 1 (≈ 1.76 µM) | 1 (≈ 1.76 µM) | 8 (≈ 14.1 µM) | 2.25 | > 64 | 1 (≈ 1.76 µM) | 0.25 (≈ 0.44 µM)
19 | O=c1n(-c2ccc(Br)cc2)cnn1CCCN1CCN(CC(O)(Cn2cncn2)c2ccc(F)cc2F)CC1 (racemic) | 0.25 (≈ 0.414 µM) | 0.25 (≈ 0.414 µM) | 4 (≈ 6.63 µM) | 2.61 | 8 (≈ 13.3 µM) | 1 (≈ 1.66 µM) | 0.25 (≈ 0.414 µM)
20 | O=c1n(-c2ccc(I)cc2)cnn1CCCN1CCN(CC(O)(Cn2cncn2)c2ccc(F)cc2F)CC1 (racemic) | 0.25 (≈ 0.384 µM) | 0.25 (≈ 0.384 µM) | 4 (≈ 6.15 µM) | 2.57 | 8 (≈ 12.3 µM) | 0.25 (≈ 0.384 µM) | 0.25 (≈ 0.384 µM)
21 | CC(C)(C)c1ccc(-n2cnn(CCCN3CCN(CC(O)(Cn4cncn4)c4ccc(F)cc4F)CC3)c2=O)cc1 (racemic) | 0.25 (≈ 0.431 µM) | 0.25 (≈ 0.431 µM) | 1 (≈ 1.72 µM) | 3.59 | 1 (≈ 1.72 µM) | 0.25 (≈ 0.431 µM) | 0.25 (≈ 0.431 µM)
